How the values were obtained:
[1] = Phantom measurement in X-ray micro-CT scanner; conditions: 0.1 mM dissolved in water vs control (0 mM)
Method: (§1) FIGS. 4A-C present the characterization of the MFS-agent 2 using different imaging modalities; (4A) Phantom T1 MRI-measurement (Bruker, ASPECT 1 T MRI scanner, USA) of control (0 mM) and MFS-agent (0.1 mM dissolved in water), (4B) Emission spectra of the MFS measured by confocal microscope (LSM-880, Zeiss, Germany) with 561 nm laser excitation (peak emission (nm): 617), (4C) and Phantom measurement in X-ray micro-Computed Tomography scanner (Bruker, Skyscan micro-CT, USA) of control (0 mM) and MFS-agent (0.1 mM dissolved in water).
(§2) To examine the multi-functionality of the complete MFS-agent 2 (FIG. 2B), compound 2 was solubilized in water (0.1 mM) and imaged via three distinct imaging modalities (FIG. 4A-C). […] This is a highly desirable trait, for a molecule that will be delivered through the blood stream. […] Red fluorescence emission was determined by using spectral analysis of a confocal microscope (FIG. 4B).

[2] = Solubilization of MFS-agent in water; type: physicochemical; conditions: 0.1 mM in water, no DMSO or other solvents
Method: as §2

[3] = Phantom T1 MRI measurement (1 T scanner); conditions: 0.1 mM dissolved in water vs control (0 mM), 1 T MRI scanner
Method: as §1, §2

[4] = Emission spectrum by confocal microscope; type: physicochemical; conditions: 561 nm laser excitation
Method: as §1, §2

In the case of `Nc1nc(OCc2ccc(CNC(=O)NCCOCCN(CCOCCn3cc(CNC(=O)CN4CCN(CC(=O)O)CCN(CC(=O)O)CCN(CC(=O)O)CC4)nn3)S(=O)(=O)c3ccc(C4=c5cc6c7c(c5Oc5c4cc4c8c5CCCN8CCC4)CCC[N+]=7CCC6)c(S(=O)(=O)O)c3)cc2)c2nc[nH]c2n1` [compound 2], the “CT signal (X-ray attenuation)” value [1] is reported as “very strong CT signal”, the solubility in water [2] is reported as “dissolved easily in water” and the “T1 MRI contrast” value [3] is reported as “very bright contrast”. For the same compound, the peak emission [4] was 617 nm.
